This is an account of results in PubChem BioAssay AID248 (DTP/NCI, 2004).

In the assay the test system is L1210 leukemia ip in BDF1 mice, survival T/C. The assay can be described thus: NCI In Vivo Anticancer Drug Screen. Data for tumor model L1210 Leukemia (intraperitoneal) in B6D2F1 (BDF1) mice. The conditions noted are these: higher = longer survival. The procedure, abridged: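 Transplanted-tumor mice were given test agent; controls received vehicle only. Survival readings from the two groups were divided (treated over control).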

The mark [1] stands for this setting: endpoint: mean survival time, dose: 400.0 mg/kg/injection, schedule: Q01DX001 (ip), vehicle: saline.
Where [2] appears, read: endpoint: mean survival time, dose: 100.0 mg/kg/injection, schedule: Q04DX003 (ip), vehicle: saline.
Where [3] appears, read: endpoint: mean survival time, dose: 200.0 mg/kg/injection, schedule: Q04DX003 (ip), vehicle: saline.

The structures appear in SMILES notation. Several values for one entry are separate records, joined by “and”; a condition that tells them apart may be missing. Equal entries are not always repeated. Toxic doses and inconclusive results are not listed.

On to `CCN(CC)CCNc1ccc(C)c2sc3ccccc3c(=O)c12` (tested in a mixture with another compound), for which the T/C (endpoint: mean survival time, dose: 6.0 mg/kg/injection, schedule: Q01DX009 (ip), vehicle: carboxymethylcellulose (CMC)) is 102 % of control; the T/C (endpoint: mean survival time, dose: 12.0 mg/kg/injection, schedule: Q01DX009 (ip), vehicle: carboxymethylcellulose (CMC)) was 98 % of control; the T/C (endpoint: mean survival time, dose: 17.0 mg/kg/injection, schedule: Q01DX015 (ip), vehicle: saline) is 102 % of control; the T/C (endpoint: mean survival time, dose: 25.0 mg/kg/injection, schedule: Q01DX009 (ip), vehicle: carboxymethylcellulose (CMC)) is 109 % of control; the T/C (endpoint: mean survival time, dose: 26.0 mg/kg/injection, schedule: Q01DX015 (ip), vehicle: carboxymethylcellulose (CMC)) was 108 % of control; the T/C (endpoint: mean survival time, dose: 26.0 mg/kg/injection, schedule: Q01DX015 (ip), vehicle: saline) is 101 % of control. Further, the T/C runs as follows: (endpoint: mean survival time, dose: 35.0 mg/kg/injection, schedule: Q01DX009 (ip), vehicle: saline) 102 % of control; (endpoint: mean survival time, dose: 39.0 mg/kg/injection, schedule: Q01DX015 (ip), vehicle: carboxymethylcellulose (CMC)) 110 % of control; (endpoint: mean survival time, dose: 40.0 mg/kg/injection, schedule: Q01DX015 (ip), vehicle: saline) 113 % of control and 118 % of control; (endpoint: mean survival time, dose: 59.0 mg/kg/injection, schedule: Q01DX015 (ip), vehicle: carboxymethylcellulose (CMC)) 116 % of control; (endpoint: mean survival time, dose: 75.0 mg/kg/injection, schedule: Q01DX009 (ip), vehicle: saline) 104 % of control; (endpoint: mean survival time, dose: 89.0 mg/kg/injection, schedule: Q01DX015 (ip), vehicle: saline) 202 % of control. Also, the T/C by setting is: (endpoint: mean survival time, dose: 133.0 mg/kg/injection, schedule: Q01DX009 (ip), vehicle: carboxymethylcellulose (CMC)) 123 % of control; (endpoint: mean survival time, dose: 175.0 mg/kg/injection, schedule: Q01DX001 (ip), vehicle: saline) 100 % of control; (endpoint: mean survival time, dose: 200.0 mg/kg/injection, schedule: Q01DX015 (ip), vehicle: saline) 112 % of control; (endpoint: mean survival time, dose: 265.0 mg/kg/injection, schedule: Q01DX001 (ip), vehicle: saline) 105 % of control; (endpoint: mean survival time, dose: 300.0 mg/kg/injection, schedule: Q01DX015 (ip), vehicle: carboxymethylcellulose (CMC)) 91 % of control; under setting [1], 122 % of control.

Turning to `O=C(O)c1ccccc1C(=O)OC1C=CC2CCC1C2` (centres undefined), the T/C (endpoint: mean survival time, dose: 100.0 mg/kg/injection, schedule: Q01DX001 (ip), vehicle: carboxymethylcellulose (CMC)) is 112 % of control; the T/C (endpoint: mean survival time, dose: 200.0 mg/kg/injection, schedule: Q01DX001 (ip), vehicle: carboxymethylcellulose (CMC)) was 90 % of control; the T/C (endpoint: mean survival time, dose: 400.0 mg/kg/injection, schedule: Q01DX001 (ip), vehicle: carboxymethylcellulose (CMC)) is 96 % of control.

In the case of `CCn1c(=O)oc2ccccc2c1=S`, the T/C under setting [2] was 100 % of control and the T/C under setting [3] is 96 % of control.

As for `c1ccc(C2=NC2c2ccccc2)cc1` (centres undefined), the T/C (endpoint: mean survival time, dose: 25.0 mg/kg/injection, schedule: Q01DX001 (ip), vehicle: Klucel (hydroxypropylcellulose) (HPC)) is 97 % of control; the T/C (endpoint: mean survival time, dose: 50.0 mg/kg/injection, schedule: Q01DX001 (ip), vehicle: Klucel (hydroxypropylcellulose) (HPC)) was 96 % of control; the T/C (endpoint: mean survival time, dose: 100.0 mg/kg/injection, schedule: Q01DX001 (ip), vehicle: Klucel (hydroxypropylcellulose) (HPC)) was 105 % of control.

With `CN(C)C=Nc1cccc2cn[nH]c12`, the T/C is, setting by setting: (endpoint: mean survival time, dose: 100.0 mg/kg/injection, schedule: Q04DX002 (ip), vehicle: saline with Tween-80) 106 % of control; (endpoint: mean survival time, dose: 200.0 mg/kg/injection, schedule: Q04DX002 (ip), vehicle: saline with Tween-80) 106 % of control; (endpoint: mean survival time, dose: 400.0 mg/kg/injection, schedule: Q04DX002 (ip), vehicle: saline with Tween-80) 98 % of control.

For `CCOC(N)=O`, the T/C runs as follows: (endpoint: mean survival time, dose: 27.0 mg/kg/injection, schedule: Q03HX024 (ip), vehicle: saline) 97 % of control; (endpoint: mean survival time, dose: 40.0 mg/kg/injection, schedule: Q03HX024 (ip), vehicle: saline) 110 % of control; (endpoint: mean survival time, dose: 60.0 mg/kg/injection, schedule: Q03HX024 (ip), vehicle: saline) 95 % of control; (endpoint: mean survival time, dose: 62.6 mg/kg/injection, schedule: Q01DX Z (ip), vehicle: carboxymethylcellulose (CMC)) 106 % of control; (endpoint: mean survival time, dose: 90.0 mg/kg/injection, schedule: Q03HX024 (ip), vehicle: saline) 101 % of control; (endpoint: mean survival time, dose: 100.0 mg/kg/injection, schedule: Q01DX009 (ip), vehicle: saline) 102 % of control. Moreover, the T/C under setting [2] is 95 % of control; the T/C (endpoint: mean survival time, dose: 120.0 mg/kg/injection, schedule: Q01DX009 (ip), vehicle: saline) was 98 % of control; the T/C (endpoint: mean survival time, dose: 125.0 mg/kg/injection, schedule: Q01DX010 (ip), vehicle: saline) is 110 % of control and 87 % of control; the T/C (endpoint: mean survival time, dose: 125.0 mg/kg/injection, schedule: Q01DX Z (ip), vehicle: saline) is 115 % of control; the T/C (endpoint: mean survival time, dose: 125.25 mg/kg/injection, schedule: Q01DX Z (ip), vehicle: carboxymethylcellulose (CMC)) was 101 % of control; the T/C (endpoint: mean survival time, dose: 135.0 mg/kg/injection, schedule: Q03HX024 (ip), vehicle: saline) was 110 % of control. The T/C by setting is: (endpoint: mean survival time, dose: 180.0 mg/kg/injection, schedule: Q01DX009 (ip), vehicle: saline) 102 % of control; (endpoint: mean survival time, dose: 188.0 mg/kg/injection, schedule: Q01DX Z (ip), vehicle: saline) 100 % of control; (endpoint: mean survival time, dose: 200.0 mg/kg/injection, schedule: Q01DX009 (ip), vehicle: saline) 104 % of control; under setting [3], 101 % of control; (endpoint: mean survival time, dose: 250.0 mg/kg/injection, schedule: Q01DX010 (ip), vehicle: saline) 111 % of control and 112 % of control; (endpoint: mean survival time, dose: 250.0 mg/kg/injection, schedule: Q01DX Z (ip), vehicle: saline) 94 % of control. The T/C is 106 % of control (endpoint: mean survival time, dose: 250.5 mg/kg/injection, schedule: Q01DX Z (ip), vehicle: carboxymethylcellulose (CMC)); 100 % of control (endpoint: mean survival time, dose: 266.0 mg/kg/injection, schedule: Q01DX001 (ip), vehicle: saline); 108 % of control (endpoint: mean survival time, dose: 270.0 mg/kg/injection, schedule: Q01DX009 (ip), vehicle: saline); 109 % of control (endpoint: mean survival time, dose: 280.0 mg/kg/injection, schedule: Q02DX010 (ip), vehicle: carboxymethylcellulose (CMC)); 110 % of control (endpoint: mean survival time, dose: 375.0 mg/kg/injection, schedule: Q01DX Z (ip), vehicle: saline); 119 % of control under setting [1]. In addition, the T/C reads like this: (endpoint: mean survival time, dose: 400.0 mg/kg/injection, schedule: Q01DX009 (ip), vehicle: saline) 107 % of control and 110 % of control; (endpoint: mean survival time, dose: 400.0 mg/kg/injection, schedule: Q04DX003 (ip), vehicle: saline) 100 % of control; (endpoint: mean survival time, dose: 500.0 mg/kg/injection, schedule: Q01DX010 (ip), vehicle: saline) 123 % of control; (endpoint: mean survival time, dose: 500.0 mg/kg/injection, schedule: Q01DX Z (ip), vehicle: saline) 105 % of control; (endpoint: mean survival time, dose: 501.0 mg/kg/injection, schedule: Q01DX Z (ip), vehicle: carboxymethylcellulose (CMC)) 108 % of control; (endpoint: mean survival time, dose: 600.0 mg/kg/injection, schedule: Q01DX001 (ip), vehicle: saline) 121 % of control. The T/C (endpoint: mean survival time, dose: 600.0 mg/kg/injection, schedule: Q01DX009 (ip), vehicle: saline) was 98 % of control; the T/C (endpoint: mean survival time, dose: 750.0 mg/kg/injection, schedule: Q01DX Z (ip), vehicle: saline) is 103 % of control; the T/C (endpoint: mean survival time, dose: 1000.0 mg/kg/injection, schedule: Q01DX010 (ip), vehicle: saline) is 94 % of control; the T/C (endpoint: mean survival time, dose: 1000.0 mg/kg/injection, schedule: Q01DX Z (ip), vehicle: saline) was 105 % of control; the T/C (endpoint: mean survival time, dose: 1074.0 mg/kg/injection, schedule: Q01DX001 (ip), vehicle: saline) is 115 % of control; the T/C (endpoint: median survival time, dose: 125.0 mg/kg/injection, schedule: Q01DX009 (ip), vehicle: saline) is 100 % of control. The T/C by setting is: (endpoint: median survival time, dose: 250.0 mg/kg/injection, schedule: Q01DX009 (ip), vehicle: saline) 100 % of control; (endpoint: median survival time, dose: 500.0 mg/kg/injection, schedule: Q01DX009 (ip), vehicle: saline) 100 % of control and 110 % of control; (endpoint: median survival time, dose: 1000.0 mg/kg/injection, schedule: Q01DX009 (ip), vehicle: saline) 87 % of control.

For `Cc1cc2nc(CO)[nH]c2cc1C`, the T/C runs as follows: (endpoint: mean survival time, dose: 100.0 mg/kg/injection, schedule: Q01DX009 (ip), vehicle: Klucel (hydroxypropylcellulose) (HPC)) 94 % of control; (endpoint: mean survival time, dose: 100.0 mg/kg/injection, schedule: Q04DX003 (ip), vehicle: Klucel (hydroxypropylcellulose) (HPC)) 95 % of control; (endpoint: mean survival time, dose: 200.0 mg/kg/injection, schedule: Q01DX009 (ip), vehicle: Klucel (hydroxypropylcellulose) (HPC)) 96 % of control; (endpoint: mean survival time, dose: 200.0 mg/kg/injection, schedule: Q04DX003 (ip), vehicle: Klucel (hydroxypropylcellulose) (HPC)) 93 % of control; (endpoint: mean survival time, dose: 400.0 mg/kg/injection, schedule: Q01DX009 (ip), vehicle: Klucel (hydroxypropylcellulose) (HPC)) 98 % of control; (endpoint: mean survival time, dose: 400.0 mg/kg/injection, schedule: Q04DX003 (ip), vehicle: Klucel (hydroxypropylcellulose) (HPC)) 92 % of control.
